# Data taken from patent EP0356325A1, “Pharmaceutical composition containing a slightly water-soluble active substance and at least a glyceride gelled by at least a cellulose polymer” (Aiache, Jean-Marc, priority 1988, dated 1990).
# Assay: Doxycycline base content and epimer contents after storage (Tableau 2)
# Assay type: physicochemical
# Excerpt: En outre, le tableau 2 présente une comparaison des teneurs en épimères (en p. cent) de deux préparations contenant la doxycycline (sous forme hyclate), avec le principe actif ayant servi à leur formulation. La formulation testée correspond à un produit stable.
# [1] = après 1 mois de conservation à 37°C (étuve sèche), p.cent of area under chromatographic peaks
# [2] = après 3 mois de conservation à température ambiante, p.cent of area under chromatographic peaks
smiles,measurement,setting,value
"C[C@H]1c2cccc(O)c2C(=O)C2=C(O)[C@]3(O)C(=O)C(C(N)=O)=C(O)[C@@H](N(C)C)[C@@H]3[C@@H](O)[C@@H]21 [Doxycycline hyclate, hyclate de doxycycline]",Doxycycline base,après 1 mois de conservation à 37°C (étuve sèche),"858,2 mg/g"
same,6 Epidoxycycline,[1],"0,96 p.cent"
same,Déméclocycline,[1],"1,99 p.cent"
same,Oxytétracycline,[1],"0,65 p.cent"
same,Doxycycline base,après 3 mois de conservation à température ambiante,"899,0 mg/g"
same,6 Epidoxycycline,[2],"0,30 p.cent"
same,Déméclocycline,[2],"1,81 p.cent"
same,Oxytétracycline base,[2],"0,43 p.cent"
